Columns and labels:
Conditions in all cases: incubation time: 72 h
CAL-148 [1] = assay: normalised response (% of control), CellTiter-Glo; higher = more viable cells (100 = DMSO, 0 = benzethonium chloride kill control)
Description: (§1)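 DSRT, 72 h incubation, CellTox Green / CellTiter-Glo readout. Signal is normalised to DMSO and benzethonium chloride controls. Value is the normalised response at dose 3.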

Hs578T [2] = assay: as above
Description: as §1

HCC1599 [3] = assay: as above
Description: as §1

DU-4475 [4] = assay: as above
Description: as §1

MDA-MB-231 [5] = assay: as above
Description: as §1

HDQ-P1 [6] = assay: as above
Description: as §1

CAL-85-1 [7] = assay: as above
Description: as §1

MDA-MB-436 [8] = assay: as above
Description: as §1

SK-BR-3 = assay: as above
Description: as §1

MDA-MB-468 [9] = assay: as above
Description: as §1

HCC1937 [10] = assay: as above
Description: as §1

BT-549 [11] = assay: as above
Description: as §1

MFM-223 [12] = assay: as above
Description: as §1

HCC1143 [13] = assay: as above
Description: as §1

MDA-MB-453 [14] = assay: as above
Description: as §1

MCF-10A [15] = assay: as above
Description: as §1

BT-474 [16] = assay: as above
Description: as §1

CAL-120 [17] = assay: as above
Description: as §1

CAL-51 [18] = assay: as above
Description: as §1

CAL-148 [19] = assay: normalised response (% of control), CellTox Green; higher = less cell death (100 = DMSO, 0 = benzethonium chloride kill control)
Method in brief: (§2)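 A 20 µl suspension of breast cancer cells was seeded into each well of 384-well plates containing compound at 5 concentrations in 10-fold steps over a compound-specific 10,000-fold range. After 72 h incubation, CellTox Green fluorescence (485/520 nm) was read first, and CellTiter-Glo luminescence was read after 10 min at room temperature. Each plate was normalised against 0.1 % DMSO (100) and a positive kill control (0), and each value is the normalised signal at one concentration.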

Hs578T [20] = assay: as above
Method in brief: as §2

HCC1599 [21] = assay: as above
Method in brief: as §2

DU-4475 [22] = assay: as above
Method in brief: as §2

MDA-MB-231 [23] = assay: as above
Method in brief: as §2

CAL-85-1 [24] = assay: as above
Method in brief: as §2

MDA-MB-436 [25] = assay: as above
Method in brief: as §2

MDA-MB-468 [26] = assay: as above
Method in brief: as §2

HCC1937 [27] = assay: as above
Method in brief: as §2

BT-549 [28] = assay: as above
Method in brief: as §2

MFM-223 [29] = assay: as above
Method in brief: as §2

HCC1143 [30] = assay: as above
Method in brief: as §2

MDA-MB-453 [31] = assay: as above
Method in brief: as §2

BT-474 [32] = assay: as above
Method in brief: as §2

CAL-120 [33] = assay: as above
Method in brief: as §2

CAL-51 [34] = assay: as above
Method in brief: as §2

MCF-10A [35] = assay: as above
Method in brief: as §2

HDQ-P1 [36] = assay: as above
Method in brief: as §2

| Compound | normalised response (CAL-148 [1]) [%] | normalised response (Hs578T [2]) [%] | normalised response (HCC1599 [3]) [%] | normalised response (DU-4475 [4]) [%] | normalised response (MDA-MB-231 [5]) [%] | normalised response (HDQ-P1 [6]) [%] | normalised response (CAL-85-1 [7]) [%] | normalised response (MDA-MB-436 [8]) [%] | normalised response (SK-BR-3) [%] | normalised response (MDA-MB-468 [9]) [%] | normalised response (HCC1937 [10]) [%] | normalised response (BT-549 [11]) [%] | normalised response (MFM-223 [12]) [%] | normalised response (HCC1143 [13]) [%] | normalised response (MDA-MB-453 [14]) [%] | normalised response (MCF-10A [15]) [%] | normalised response (BT-474 [16]) [%] | normalised response (CAL-120 [17]) [%] | normalised response (CAL-51 [18]) [%] | normalised response (CAL-148 [19]) [%] | normalised response (Hs578T [20]) [%] | normalised response (HCC1599 [21]) [%] | normalised response (DU-4475 [22]) [%] | normalised response (MDA-MB-231 [23]) [%] | normalised response (CAL-85-1 [24]) [%] | normalised response (MDA-MB-436 [25]) [%] | normalised response (MDA-MB-468 [26]) [%] | normalised response (HCC1937 [27]) [%] | normalised response (BT-549 [28]) [%] | normalised response (MFM-223 [29]) [%] | normalised response (HCC1143 [30]) [%] | normalised response (MDA-MB-453 [31]) [%] | normalised response (BT-474 [32]) [%] | normalised response (CAL-120 [33]) [%] | normalised response (CAL-51 [34]) [%] | normalised response (MCF-10A [35]) [%] | normalised response (HDQ-P1 [36]) [%] |
| --- | --- | --- | --- | --- | --- | --- | --- | --- | --- | --- | --- | --- | --- | --- | --- | --- | --- | --- | --- | --- | --- | --- | --- | --- | --- | --- | --- | --- | --- | --- | --- | --- | --- | --- | --- | --- | --- |
| CN(c1ccccc1CNc1nc(Nc2ccc3c(c2)CC(=O)N3)ncc1C(F)(F)F)S(C)(=O)=O (100 nM) | 104 | 94.3 | 98.3 | 95.6 | 89.6 | 101 | 95.5 | 91.9 | 88.3 | 88.5 | 96.5 | 97.9 | 95.5 | 96.5 | 90.4 | 86.2 | 89.8 | 87.2 | 93.1 | 99.2 | 104 | 94 | 98.1 | 85.8 | 102 | 80.3 | 115 | 83.4 | 97.5 | 103 | 84.4 | 103 | 94.5 | 99.9 | 87.6 |  |  |
| O=c1[nH]c(=O)n([C@H]2C[C@H](O)[C@@H](CO)O2)cc1F [Floxuridine] (100 nM) | 110 | 28 | 66.8 | 103 | 100 | 90.8 | 57 | 74.6 | 71.4 | 86.1 | 75.4 | 94.4 | 113 | 103 | 116 | 109 | 99.3 | 99.3 | 57.2 |  | 103 | 113 | 107 | 115 | 87.3 | 115 | 96.2 | 51.1 | 114 | 98.5 | 63.4 | 104 | 102 | 107 | 95.6 | 97.8 |  |
| COC1=C2C[C@@H](C)C[C@H](OC)[C@H](O)[C@@H](C)/C=C(\C)[C@H](OC(N)=O)[C@@H](OC)/C=C\C=C(/C)C(=O)NC(=CC1=O)C2=O [Geldanamycin] (100 nM) | 118 | 107 | 109 | 106 | 113 | 102 | 108 | 107 | 105 | 106 | 101 | 96.5 | 115 | 104 | 113 | 103 | 102 | 109 | 84.7 | 106 |  | 106 | 104 | 103 | 96.5 |  |  | 111 | 99.4 | 95.2 | 76.5 | 106 | 100 | 99.7 | 96 | 95.5 | 106 |

From the supplement of paper PMC4862054
